In patent US20170252350A1, “SMALL MOLECULE IRE1-ALPHA INHIBITORS” (Cornell University, priority 2016, published 2017) one finds EC50 and intracellular lipid accumulation data, which are given here for 26 molecules.

Where “and” joins values, the source holds several entries; their conditions need not be identical. Equal entries are not always repeated.

In one assay the target is T1, IRE1α (Homo sapiens, UniProt O75460).
T1 construct: purchased SignalChem
T1 sequence (O75460 19-977): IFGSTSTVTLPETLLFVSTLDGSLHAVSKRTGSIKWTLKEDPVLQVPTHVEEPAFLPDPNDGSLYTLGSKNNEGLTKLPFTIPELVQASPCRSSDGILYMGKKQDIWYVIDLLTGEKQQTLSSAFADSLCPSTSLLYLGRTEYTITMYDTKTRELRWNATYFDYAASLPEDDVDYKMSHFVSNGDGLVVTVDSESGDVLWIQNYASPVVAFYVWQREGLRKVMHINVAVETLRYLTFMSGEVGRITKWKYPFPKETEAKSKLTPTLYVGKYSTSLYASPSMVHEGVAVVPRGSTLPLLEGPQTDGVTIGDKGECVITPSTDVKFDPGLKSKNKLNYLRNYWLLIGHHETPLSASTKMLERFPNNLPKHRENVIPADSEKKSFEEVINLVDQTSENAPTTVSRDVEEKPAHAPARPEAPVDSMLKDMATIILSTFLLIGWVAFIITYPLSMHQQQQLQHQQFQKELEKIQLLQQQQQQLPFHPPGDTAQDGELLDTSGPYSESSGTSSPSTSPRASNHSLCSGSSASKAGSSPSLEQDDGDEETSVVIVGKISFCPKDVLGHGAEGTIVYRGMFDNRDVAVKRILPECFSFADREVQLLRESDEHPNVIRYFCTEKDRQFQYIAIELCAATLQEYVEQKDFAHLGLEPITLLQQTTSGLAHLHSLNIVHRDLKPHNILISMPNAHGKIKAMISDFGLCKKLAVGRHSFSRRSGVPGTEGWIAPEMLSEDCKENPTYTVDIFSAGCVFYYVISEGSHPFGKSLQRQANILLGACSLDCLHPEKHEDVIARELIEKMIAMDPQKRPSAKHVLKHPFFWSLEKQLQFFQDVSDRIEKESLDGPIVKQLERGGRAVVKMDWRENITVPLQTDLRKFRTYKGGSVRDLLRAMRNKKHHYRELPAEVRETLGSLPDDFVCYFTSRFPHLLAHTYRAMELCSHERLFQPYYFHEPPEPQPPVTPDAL
The assay is described as follows: In vitro FRET assay of IRE1α endoribonuclease activity (XBP1 RNA hairpin probe). In kind it is biochemical. Conditions: SignalChem IRE1α protein 2 nM, fluorescence read over 30 minutes. The text has this:
To evaluate potential small molecule IRE1 inhibitors, a Förster resonance energy transfer (FRET)-based small molecule IRE1 screening system was used. In brief, a small XBP1-mimetic RNA hairpin containing sequence features required for IRE1α-mediated splicing has been synthesized with the fluorophore 6FAM attached to the 5′ end and the quenching dye Black Hole Quencher 1 (BHQ1) attached to the 3′ end. When the hairpin is intact, 6FAM fluorescence is completely absorbed by BHQ1; however, IRE1α-mediated cleavage of the RNA hairpin leads to an increase in the fluorescence signal. The inventors also incorporated a point mutant version of this same RNA hairpin that is resistant to IRE1α-mediated cleavage to control for non-specific RNAse contamination (FIG. 2).
To perform the in vitro FRET assay, 1× complete assay buffer (CAB; […], 50 mM sodium citrate pH 7.15, 1 mM magnesium acetate, 0.02% tween 20) was used to dilute SignalChem IRE1α protein to a final concentration of 2 nM. Selected compounds were serially diluted with DMSO in a non-binding black 384-well plate for a total of 15 μl in each well. 2 μl of the serially diluted compound or DMSO control were then added to new wells containing 98 μl of 1×CAB, for a total volume of 100 μl, 10 μl of which were then transferred to wells of a new plate. 5 μof the diluted IRE1α was then added to each well. 5 μl of a […] XBP1 RNA probe was then added to each well. Fluorescence was then read over 30 minutes in kinetic mode (485/515 nm).
Two RNA probes were used, XBP1 wildtype (CAUGUCCGCAGCACAUG; SEQ ID NO: 1) which is able to be spliced by active IRE1α or XBP1 mutant (CAUGUCCCCAGCACAUG; SEQ ID NO: 2) which is unable to be spliced. Each probe contained a 5′ 6-FAM modification and a 3′ IOWA Black FQ modification, […]
A word on the EC50: it is the concentration that produces a half-maximal response. Low values mean higher potency in that assay, high ones lower potency in that assay. As for `CN1CCN(Cc2ccc(NC(=O)Nc3cc(C#Cc4cnccn4)n(C)n3)cc2C(F)(F)F)CC1` [Compound A19], the half-maximal effective concentration (EC50) is not above 5 µM.

`Cn1nc(NC(=O)Nc2ccc(CN3CCCCC3)c(C(F)(F)F)c2)cc1C#Cc1ccc(N)nc1` [Compound A24] yielded an EC50 of 5 to 50 µM.

For the molecule `CN1CCN(Cc2ccc(NC(=O)Nc3cc(C#Cc4cc(N)[nH]n4)n(C)n3)cc2C(F)(F)F)CC1` [Compound A11], the 50% effective concentration (EC50) was not above 5 µM.

Turning to `CN1CCN(Cc2ccc(NC(=O)Nc3cc(C#Cc4ccc(N)cc4)n(C)n3)cc2C(F)(F)F)CC1` [Compound A18], the half-maximal effective concentration (EC50) lay in the range of 50 to 100 µM.

Regarding `Cn1nc(NC(=O)Nc2ccc(CN3CCN(CCO)CC3)c(C(F)(F)F)c2)cc1C#Cc1ccc(N)nc1` [Compound A22], the EC50 is not above 5 µM.

`Cn1nc(NC(=O)Nc2cccc(C(F)(F)F)c2)cc1C#Cc1ccc(N)nc1` [Compound A20]: the EC50 is not above 5 µM.

`CN1CCN(Cc2ccc(NC(=O)Nc3cc(C#Cc4cncn4C)n(C)n3)cc2C(F)(F)F)CC1` [Compound A13] came in with a 50% effective concentration (EC50) not above 5 µM.

`CN1CCN(Cc2ccc(NC(=O)Nc3cc(C#Cc4cn[nH]c4)n(C)n3)cc2C(F)(F)F)CC1` [Compound A12] had an EC50 not above 5 µM.

Take `CN1CCN(Cc2ccc(NC(=O)Nc3cc(C#Cc4cnc5cccnn45)n(C)n3)cc2C(F)(F)F)CC1` [Compound A3]: the 50% effective concentration (EC50) is not above 5 µM.

`CN1CCN(Cc2ccc(NC(=O)Nc3cc(C#Cc4cnc5ccccn45)n(C)n3)cc2C(F)(F)F)CC1` [Compound A4] showed a half-maximal effective concentration (EC50) not above 5 µM.

On to `CN1CCN(Cc2ccc(NC(=O)Nc3cc(C#Cc4ccncc4)n(C)n3)cc2C(F)(F)F)CC1` [Compound A10], for which the EC50 was not above 5 µM.

For the molecule `Cn1nc(NC(=O)Nc2ccc(CN3CCOCC3)c(C(F)(F)F)c2)cc1C#Cc1ccc(N)nc1` [Compound A25], the EC50 was in the range of 5 to 50 µM.

In turn, `CN1CCN(Cc2ccc(NC(=O)Nc3cc(C#Cc4cnc(N)cn4)n(C)n3)cc2C(F)(F)F)CC1` [Compound A9] had an EC50 not above 5 µM.

With `CN1CCN(Cc2ccc(NC(=O)Nc3cc(C#Cc4cncc(N)c4)n(C)n3)cc2C(F)(F)F)CC1` [Compound A21], the EC50 was not above 5 µM.

As for `CN1CCN(Cc2ccc(NC(=O)Nc3cc(C#Cc4n[nH]c5cccnc45)n(C)n3)cc2C(F)(F)F)CC1` [Compound A14], the concentration for a half-maximal effect (EC50) was not above 5 µM.

As for `CN1CCN(Cc2ccc(NC(=O)Nc3cc(C#Cc4ccccn4)n(C)n3)cc2C(F)(F)F)CC1` [Compound A16], the 50% effective concentration (EC50) is not above 5 µM.

In the case of `CN1CCN(Cc2ccc(NC(=O)Nc3cc(C#Cc4ccc(C#N)nc4)n(C)n3)cc2C(F)(F)F)CC1` [Compound A17], the EC50 is not above 5 µM.

With `COc1cc(C#Cc2cc(NC(=O)Nc3ccc(CN4CCN(C)CC4)c(C(F)(F)F)c3)nn2C)ccn1` [Compound A8], the half-maximal effective concentration (EC50) was ≤ 5 µM and 5 to 50 µM.

Take `CN1CCN(Cc2ccc(NC(=O)Nc3cc(C#Cc4cccnc4)n(C)n3)cc2C(F)(F)F)CC1` [Compound A1]: the EC50 was not above 5 µM.

On to `CN1CCN(Cc2ccc(NC(=O)Nc3cc(C#Cc4cncc5nccn45)n(C)n3)cc2C(F)(F)F)CC1` [Compound A6], for which the EC50 was not above 5 µM.

`CN1CCN(Cc2ccc(NC(=O)Nc3cc(C#Cc4cc[nH]c(=O)c4)n(C)n3)cc2C(F)(F)F)CC1` [Compound A15] gave an EC50 of 5 to 50 µM.

For the molecule `CN1CCN(Cc2ccc(NC(=O)Nc3cc(C#Cc4cnc5cnccn45)n(C)n3)cc2C(F)(F)F)CC1` [Compound A5], the concentration for a half-maximal effect (EC50) is not above 5 µM.

As for `CN1CCN(Cc2ccc(NC(=O)Nc3cc(C#Cc4ccc(N)nc4)n(C)n3)cc2C(F)(F)F)CC1` [Compound A2], the EC50 is not above 5 µM.

Molecule `CN1CCN(Cc2ccc(NC(=O)Nc3cc(C#Cc4ccnc(N)c4)n(C)n3)cc2C(F)(F)F)CC1` [Compound A7] showed an EC50 of 5 to 50 µM.

The molecule `CN1CCN(Cc2ccc(NC(=O)Nc3nnc(C#Cc4ccc(N)nc4)s3)cc2C(F)(F)F)CC1` [Compound A23] registered a half-maximal effective concentration (EC50) not above 5 µM.

A further assay has as its system myeloid dendritic cells. The assay is described as follows: Lipid accumulation (BODIPY 493/503) in myeloid dendritic cells exposed to ovarian cancer ascites supernatants. Format: cell-based, mouse.
Conditions: not given
With vitamin E, the intracellular lipid accumulation entry was “suppressed”.
